According to patent US20220072008A1 (CEDARS-SINAI MEDICAL CENTER, priority 2020, published 2022):
Where “and” joins values, the source holds several entries; their conditions need not be identical. Equal values may be shown once.

Tests used:
[1] = system: hospitalized men with COVID-19; test: Randomized controlled pilot trial: clinical status and clinical outcomes, progesterone + SOC vs SOC alone; assay type: in vivo, human
[2] = Randomized controlled pilot trial: serious adverse events and safety; assay type: in vivo, human
Experimental: Death, serious adverse events (SAE's), and grade 3 and 4 adverse events (AEs) are will be assessed and reported throughout the study.
Study patients were assessed daily for 15 days or until discharge, whichever came first. Discharged patients participated in phone or video study visits on days 7 and 15. Clinical assessment performed daily during hospitalization included evaluation of clinical status with daily vital signs, oxygen supplementation type and amount, need for mechanical ventilation, adverse events, and concomitant medications. WBCs, hemoglobin, platelets, electrolytes, BUN, creatinine, liver transaminases, and inflammatory markers, if obtained as part of SOC, were monitored on days 1 through 5, 7, and 15 while patients were hospitalized. […] Self-reported race and ethnicity, obtained from medical records, were collected as demographic information to assess possible differences in disease severity or treatment response. Serious adverse events and grade 3 and 4 adverse events as described in the Division of AIDS Table for Grading the Severity of Adult and Pediatric Adverse Events were recorded.

[3] = 100 mg sc twice daily 5 days + SOC, n = 18
[4] = 100 mg sc twice daily 5 days + SOC, preliminary analysis N = 17
[5] = 7-point ordinal scale, preliminary analysis N = 17, P 0.003 vs SOC
[6] = 7-point ordinal scale, preliminary analysis N = 17, P <0.001 vs SOC
[7] = seven-point ordinal scale, from baseline, n = 18
[8] = Control Group After Progesterone n = 9, SAEs after receiving progesterone (crossover)

For CC(=O)[C@H]1CC[C@H]2[C@@H]3CCC4=CC(=O)CC[C@]4(C)[C@H]3CC[C@]12C [Progesterone, progesterone], the “Status on day 7: 1: Death” value [1, 3] was 1 (5.6) No. (%), the “Status on day 7: 2: Hospitalized; on invasive mechanical ventilation or ECMO” value [1, 3] was 0 (0.0) No. (%) and the “Status on day 7: 3: Hospitalized; on high-flow nasal cannula” value [1, 3] was 2 (11.1) No. (%). The “Status on day 7: 4: Hospitalized; requiring supplemental oxygen (not HFNC)” value [1, 3] was 2 (11.1) No. (%), the “Status on day 7: 5: Hospitalized; not requiring supplemental oxygen” value [1, 3] was 4 (22.2) No. (%) and the “Status on day 7: 6: Not hospitalized; limitations on activities” value [1, 3] was 7 (38.9) No. (%). The “Status on day 7: 7: Not hospitalized; no limitations on activities” value [1, 3] was 2 (11.1) No. (%), the “Status on day 15: 1: Death” value [1, 3] was 1 (5.6) No. (%) and the “Status on day 15: 2: Hospitalized; on invasive mechanical ventilation or ECMO” value [1, 3] was 0 (0.0) No. (%). The “Status on day 15: 3: Hospitalized; on high-flow nasal cannula” value [1, 3] was 0 (0.0) No. (%), the “Status on day 15: 4: Hospitalized; requiring supplemental oxygen (not HFNC)” value [1, 3] was 1 (5.6) No. (%) and the “Status on day 15: 5: Hospitalized; not requiring supplemental oxygen” value [1, 3] was 1 (5.6) No. (%). The “Status on day 15: 6: Not hospitalized; limitations on activities” value [1, 3] was 8 (44.4) No. (%), the “Status on day 15: 7: Not hospitalized; no limitations on activities” value [1, 3] was 7 (38.9) No. (%) and the “Status at Day 7: 2-Hospitalized; on invasive mechanical ventilation or ECMO” value [1, 4] was 0 (0.0) n (%). For the same compound, the “Status at Day 7: 3-Hospitalized; on high flow nasal cannula” value [1, 4] was 2 (11.8) n (%), the “Status at Day 7: 4-Hospitalized; requiring supplemental oxygen (not HFNC)” value [1, 4] was 2 (11.8) n (%) and the “Status at Day 7: 5-Hospitalized; not requiring supplemental oxygen” value [1, 4] was 4 (23.5) n (%). For the same compound, the “Status at Day 7: 6-Not hospitalized; limitations on activities” value [1, 4] was 7 (41.2) n (%), the “Status at Day 7: 7-Not hospitalized; no limitations on activities” value [1, 4] was 2 (11.8) n (%) and the “Worst Status Prior to Day 7: 2-Hospitalized; on invasive mechanical ventilation or ECMO” value [1, 4] was 0 (0.0) n (%). For the same compound, the “Worst Status Prior to Day 7: 3-Hospitalized; on high flow nasal cannula” value [1, 4] was 5 (29.4) n (%), the “Worst Status Prior to Day 7: 4-Hospitalized; requiring supplemental oxygen (not HFNC)” value [1, 4] was 11 (64.7) n (%) and the “Worst Status Prior to Day 7: 5-Hospitalized; not requiring supplemental oxygen” value [1, 4] was 1 (5.9) n (%). The “Change from Baseline at Day 7: 0” value [1, 5] was 3 (17.6) n (%), the “Change from Baseline at Day 7: +1” value [1, 5] was 3 (17.6) n (%) and the “Change from Baseline at Day 7: +2” value [1, 5] was 7 (41.2) n (%). The “Change from Baseline at Day 7: +3” value [1, 5] was 2 (11.8) n (%), the “Change from Baseline at Day 7: −1” value [1, 5] was 2 (11.8) n (%) and the “Change from Baseline at Day 7: −2” value [1, 5] was 0 (0.0) n (%). The “Change from Worst at Day 7: 0” value [1, 6] was 3 (17.6) n (%), the “Change from Worst at Day 7: +1” value [1, 6] was 4 (23.5) n (%) and the “Change from Worst at Day 7: +3” value [1, 6] was 2 (11.8) n (%). The “median hospital length of stay (LOS)” value ([1]; Progesterone Group n = 18) was 7.0 days, the “median number of days on supplemental oxygen” value ([1]; Progesterone Group n = 18) was 4.5 (IQR, 2.0-6.0) days and 4.5 days and the “patients remaining hospitalized at study completion” value ([1]; day 15, progesterone group) was “one”. The “cumulative probability of clinical improvement (increase of at least one point on the seven-point scale or live discharge)” value ([1]; first seven study days, Kaplan-Meier estimation, one noncompliant patient excluded, log-rank P=0.014 vs control) was 0.76 (95% CI, 0.55-0.93), the “fewer days hospitalized than control” value ([1]; median 7.0 vs 9.5 days) was 2.5 days and the “patients remaining hospitalized by day 7” value ([1]; nine of 18 patients) was 50%. The “median improvement more than control group, worst clinical status before day 7 vs status on day 7” value ([1]; post hoc sensitivity analysis, 95% CI, 1.0-2.0, P=0.006) was “two”, the “improvement in clinical status at Day 7 compared to SOC” value ([1]; preliminary analysis, Wilcoxon rank-sum p=0.003) was “greater degree of improvement in clinical status at Day 7” and the “improvement from worst status prior to Day 7 compared to SOC” value ([1]; preliminary sensitivity analysis, p<0.001) was “greater improvement over the SOC group”. The mechanical ventilation initiated ([1]; progesterone group, vs four of 22 control patients) was “none”, the “overall change in score from baseline to day 7, median better than control group” value ([1]; sensitivity analysis, last assessment before crossing over imputed as day 7 score, 95% CI, 0.0-2.0, P=0.010) was 1.5 points and the “Change in status on day 7: 0” value [1, 7] was 3 (16.7) No. (%). For the same compound, the “Change in status on day 7: +1” value [1, 7] was 3 (16.7) No. (%), the “Change in status on day 7: +2” value [1, 7] was 7 (38.9) No. (%) and the “Change in status on day 7: +3” value [1, 7] was 2 (11.1) No. (%). For the same compound, the “Change in status on day 7: −1” value [1, 7] was 2 (11.1) No. (%), the “Change in status on day 7: −2” value [1, 7] was 0 (0.0) No. (%) and the “Change in status on day 7: −3” value [1, 7] was 1 (5.6) No. (%). The “Change in status on day 15: 0” value [1, 7] was 1 (5.6) No. (%), the “Change in status on day 15: +1” value [1, 7] was 4 (22.2) No. (%) and the “Change in status on day 15: +2” value [1, 7] was 4 (22.2) No. (%). The “Change in status on day 15: +3” value [1, 7] was 7 (38.9) No. (%), the “Change in status on day 15: +4” value [1, 7] was 1 (5.6) No. (%) and the “Change in status on day 15: −1” value [1, 7] was 0 (0.0) No. (%). The “Change in status on day 15: −2” value [1, 7] was 0 (0.0) No. (%), the “Change in status on day 15: −3” value [1, 7] was 1 (5.6) No. (%) and the “Change in status on day 7, median (IQR)” value ([1]; seven-point ordinal scale, from baseline, n = 18, P .024 vs control) was 1.5 (0.0 to 2.0). The “Change in status on day 15, median (IQR)” value ([1]; seven-point ordinal scale, from baseline, n = 18, P .150 vs control) was 2.0 (1.0 to 3.0), the “overall improvement in median clinical status score from baseline to day 7 compared with control” value ([1]; seven-point ordinal scale, 95% CI, 0.0-2.0, P=0.024) was 1.5 points and the “serious adverse events attributable to progesterone” value ([2]; 100 mg sc twice daily) was “no serious adverse events attributable to progesterone”. For the same compound, the “Any SAE or death” value [2, 8] was 3 (33.3) No. (%), the “SAE: Cardiac arrest” value [2, 8] was 0 (0.0) No. (%) and the “SAE: Creatinine increased” value [2, 8] was 0 (0.0) No. (%). For the same compound, the “SAE: DVT” value [2, 8] was 1 (11.1) No. (%), the “SAE: Death” value [2, 8] was 0 (0.0) No. (%) and the “SAE: Hypoperfusion” value [2, 8] was 2 (22.2) No. (%). The “SAE: Hypoxia” value [2, 8] was 3 (33.3) No. (%), the “SAE: Lymphocyte count decreased” value [2, 8] was 0 (0.0) No. (%) and the “SAE: Pulmonary embolism” value [2, 8] was 0 (0.0) No. (%). For the same compound, the “Any SAE or death” value ([2]; Progesterone Group n = 18) was 2 (11.1) No. (%), the “SAE: Cardiac arrest” value ([2]; Progesterone Group n = 18) was 0 (0.0) No. (%) and the “SAE: Creatinine increased” value ([2]; Progesterone Group n = 18) was 0 (0.0) No. (%). For the same compound, the “SAE: DVT” value ([2]; Progesterone Group n = 18) was 1 (5.6) No. (%), the “SAE: Death” value ([2]; Progesterone Group n = 18) was 1 (5.6) No. (%) and the “SAE: Hypoperfusion” value ([2]; Progesterone Group n = 18) was 0 (0.0) No. (%). The “SAE: Hypoxia” value ([2]; Progesterone Group n = 18) was 0 (0.0) No. (%), the “SAE: Lymphocyte count decreased” value ([2]; Progesterone Group n = 18) was 0 (0.0) No. (%) and the “SAE: Pulmonary embolism” value ([2]; Progesterone Group n = 18) was 1 (5.6) No. (%). For the same compound, the risk of thromboembolism ([2]; all patients on prophylactic-dose anticoagulation) was “not associated with any significant increase in the risk of thromboembolism”, the “tolerability of high serum levels” value ([2]; levels as high as 288 ng/mL) was “tolerated well and not associated with any adverse events” and the “deaths during the total 15-day surveillance period” value ([2]; progesterone group, not attributable to progesterone) was “one”. For the same compound, the “patients with thromboembolic events” value ([2]; progesterone group, two thromboembolic events in one patient) was 5.6%.
